The nature of this data set: Human Phase 1 pharmacokinetics of GC4419. The conditions noted are these: both sexes, in vivo. As to the method:
A human clinical trial entitled, “A Double-Blind, Placebo-Controlled, Single Rising Dose Study to Evaluate the Safety and Tolerability and Determine the Pharmacokinetics of M40419 Administered as a I5-Minute Intravenous Infusion in Healthy Subjects,” was conducted on 54 subjects. This was a single center, randomized, placebo-controlled, sequential panel, single dose safety, tolerability, and pharmacokinetic study of GC4419 administered as a 75-mL IV infusion over 15 minutes in escalating doses of 10 mg, 15 mg, 22 mg, 33 mg, 50 mg, 75 mg, and 112 mg. The study consisted of two phases: the first phase was a dose escalation with six subjects (four active and two placebo) in each cohort to determine a Maximum Tolerated Dose (MTD); the second phase was a repeat of the MTD dose in 12 subjects (eight active drug and four placebo) to confirm the MTD or safety of highest dose tested. The study population was comprised of 54 healthy male and female subjects (36 males, 18 females) between the ages of 18 and 50 years considered eligible on the basis of inclusion and exclusion criteria. There were four active and two placebo subjects for each dose level in the escalating dose phase of the study, and eight active and four placebo subjects for the confirmation of MTD phase.
As part of the conduct of the Phase 1a clinical studies for GC4403 and GC4419 described in the Examples herein, plasma samples were collected for measuring the concentration of parent compounds (GC4403 and GC4419) after intravenous infusion. Table 3 illustrates the pharmacokinetic parameter, area under the curve (AUC), representing the total exposure of the subject to the drugs over time.

SMILES strings stand for the structures.

`[Cl][Mn-5]1234([Cl])[n+]5c6cccc5C[NH+]1[C@H]1CCCC[C@@H]1[NH+]2CC[NH+]3[C@H]1CCCC[C@@H]1[NH+]4C6` (stereo partly shown) [GC4419]: the AUC(0-inf) came out at 741 ng·h/mL (10 mg IV over 15 minutes); 1300 ng·h/mL (15 mg IV over 15 minutes); 2000 ng·h/mL (22 mg IV over 15 minutes); 3190 ng·h/mL (33 mg IV over 15 minutes); 4560 ng·h/mL (50 mg IV over 15 minutes); 6490 ng·h/mL (75 mg IV over 15 minutes). The total exposure AUC(0-inf) (112 mg IV over 15 minutes) was 10400 ng·h/mL.

The values above are taken from patent US11826373B2, “Methods for treatment of diseases” (Galera Labs, LLC, priority 2011, dated 2023).
